Experimental data published in patent US11261152B2, “Inhibitors of the N-terminal domain of the androgen receptor” (The Regents of the University of California, priority 2017, dated 2022).
“Also recorded” adds a separate entry of the source.

Experiments:
[1] = test system: AR-null PCa cells (DU145, PC3); assay: MTT / CellTiter GLO cell viability, AR-null prostate cancer cells; settings: for MTT AR-Neg: Table 3 grade HIGH/MED/LOW, grades not defined; for growth of AR null prostate cancer cells: result in words
Experimental: (§2) The results are means of quadruplicate expts±s.d. Top panel: CellTiter GLO luminescent bioassay (arbitrary units on vertical axis). Bottom panel: classical MTT assay ([blue/yellow]=[viable/non-viable]).
(§3) Experiments were performed in quadruplicate; results are means+/−s.d.
AR null PC3 cells were exposed to the indicated compounds for 6 days; cell viability was measured by MTT assay. Results were normalized to that of vehicle control. Experiments were performed in quadruplicate; results are means+/−s.d.
For each compound and concentration in the figure, the bars represent relative cell viability of 22Rv1, LAPC4, and DU145, from left to right.
For each compound and concentration in the figure, the bars represent relative cell viability of CWR22 and PC3, from left to right.

[2] = target: T1, AR transactivation domain (TAD) (Homo sapiens, UniProt P10275); assay: AR-TAD fused to GAL4 DNA-binding domain reporter assay; format: cell-based; settings: Table 3 grade HIGH/MED/LOW, grades not defined
T1 construct: expressed in transfected cells
T1 sequence (P10275 1-559 limits assumed): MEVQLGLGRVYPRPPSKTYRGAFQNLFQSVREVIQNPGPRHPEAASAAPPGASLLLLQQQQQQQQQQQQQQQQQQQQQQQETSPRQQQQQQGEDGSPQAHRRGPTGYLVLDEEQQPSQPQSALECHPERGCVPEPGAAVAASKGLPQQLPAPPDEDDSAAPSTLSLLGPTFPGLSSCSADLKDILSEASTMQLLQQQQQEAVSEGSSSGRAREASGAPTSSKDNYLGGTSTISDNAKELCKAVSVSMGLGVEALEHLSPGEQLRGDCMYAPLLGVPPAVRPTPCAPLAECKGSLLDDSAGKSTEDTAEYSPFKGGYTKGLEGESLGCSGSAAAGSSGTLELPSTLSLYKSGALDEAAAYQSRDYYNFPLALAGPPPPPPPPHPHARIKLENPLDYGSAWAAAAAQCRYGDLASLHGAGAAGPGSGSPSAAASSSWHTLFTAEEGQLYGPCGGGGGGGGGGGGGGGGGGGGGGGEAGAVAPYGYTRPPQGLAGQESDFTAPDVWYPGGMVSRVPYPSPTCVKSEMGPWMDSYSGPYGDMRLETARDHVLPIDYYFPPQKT
Description: (§1) The inhibitory activity of JN018 was further evaluated in experiments in which the AR transactivation domain (TAD) or the c-Jun or CREB TAD was fused to the heterologous GAL4 DNA-binding domain and thereby drive reporter gene expression governed by the GAL4 response element (FIG. 1).

[3] = test system: AR positive PCa cells (LNCaP, LNCaP-AR, CWR22, 22Rv1, LAPC4); assay: MTT / CellTiter GLO cell viability, AR positive prostate cancer cells; settings: for MTT AR-Pos: Table 3 grade HIGH/MED/LOW, grades not defined; for growth inhibitory / suppressive effects as compared to JN018 / growth of AR expressing prostate cancer cells: result in words
Experimental: as §2, §3
Results were normalized to that of vehicle control. Experiments were performed in quadruplicate; results are means+/−s.d.
Next, the effects of the compounds on growth of prostate cancer cell lines in vitro were evaluated.

c-Jun TAD = assay: JUN-TAD fused to GAL4 DNA-binding domain reporter assay; format: cell-based; settings: Table 3 grade HIGH/MED/LOW, grades not defined
Description: as §1

CREB TAD = assay: CREB-TAD fused to GAL4 DNA-binding domain reporter assay; format: cell-based; settings: Table 3 grade HIGH/MED/LOW, grades not defined
Description: as §1

[4] = test system: glucocorticoid response element (GRE) / glucocorticoid receptor; assay: GRE reporter assay; format: cell-based; settings: Table 3 grade HIGH/MED/LOW, grades not defined
Experimental: FIG. 11B. Effects of JN series compounds in reporter assays for glucocorticoid response element. Experiments were performed in triplicate and results are means+/−s.d.

[5] = test system: AR transcriptional activity (MMTV reporter); assay: MMTV reporter assay; format: cell-based; settings: Table 3 grade HIGH/MED/LOW, grades not defined
[6] = test system: androgen response element (ARE); assay: ARE reporter assay (tandem copies of the androgen response element); format: cell-based; settings: for ARE: Table 3 grade HIGH/MED/LOW, grades not defined; for reporter activity driven by the ARE: result in words
Experimental: FIG. 11A. Effects of JN series compounds in reporter assays for androgen response element. Experiments were performed in triplicate and results are means+/−s.d.

[7] = test system: LNCaP-AR castration resistant cell line; assay: LNCaP-AR castration resistant xenograft in castrated nude mice; format: in vivo; settings: for tumor growth of LNCaP-AR model in castrated nude mice: oral gavage once per day, five days per week (Mon-Fri); for signs of toxicity in mice: xenograft study, oral gavage Mon-Fri
Experimental: FIG. 12A. In vivo effects of JN series compounds.
FIG. 12B. In vivo effects of JN series compounds.
Selected compounds were tested in a mouse xenograft model. In this model, the LNCaP-AR castration resistant cell line was grown subcutaneously in the flanks of castrated nude mice. When tumors reached 150-200 mm^3, mice were administered selected JN series compounds, vehicle or positive control by oral gavage once per day for five days per week (Mon-Fri). […].

A549 = assay: Growth of lung cancer cells; format: cell-based; settings: not shown
Description: Further modifications of R1 yielded compounds with a spectrum of growth suppressive effects.

[8] = test system: AP1 mediated reporter activity; assay: AP1 reporter assay; format: cell-based; settings: Table 3 grade HIGH/MED/LOW, grades not defined

SMILES	MTT AR-Neg [1]	AR-TAD [2]	MTT AR-Pos [3]	JUN-TAD (c-Jun TAD)	CREB-TAD (CREB TAD)	GRE [4]	MMTV [5]	ARE [6]	tumor growth of LNCaP-AR model in castrated nude mice [7]	signs of toxicity in mice [7]	growth of AR null prostate cancer cells [1]	growth of lung cancer cells (A549) (A549)	growth inhibitory / suppressive effects as compared to JN018 [3]	growth of AR expressing prostate cancer cells [3]	reporter activity driven by the ARE [6]	AP1 [8]
C=CC(O)/C(=C\c1ccc(Cl)cc1)c1ccccc1 (centres unmarked) [JN003, (Z)-1-(4-Chlorophenyl)-2-phenylpenta-1,4-dien-3-ol]	LOW	HIGH	LOW	LOW	LOW	LOW	HIGH									
CN(C/C(=C\c1ccc(Cl)cc1)C(=O)c1ccccc1)Cc1ccccc1 [JN017, (E)-2-((Benzyl(methyl)amino)methyl)-3-(4-chlorophenyl)-1-phenylprop-2-en-1-one]	MED	HIGH	HIGH	LOW	LOW		LOW	LOW								
CN(C/C(=C\c1ccc(Br)cc1)C(=O)c1ccccc1)Cc1ccccc1 [JN022]	HIGH	HIGH	HIGH	HIGH	LOW		HIGH	LOW								
CN(C)C/C(=C\c1ccc(Cl)cc1)C(=O)c1ccccc1 [JN024]	MED	HIGH	HIGH	HIGH	HIGH		HIGH	HIGH								
C=C(C)C(=O)/C(=C\c1ccc(Cl)cc1)c1ccccc1 [JN025]	MED		LOW				HIGH	HIGH								
Cc1ccc(/C=C(\CN(C)Cc2ccccc2)C(=O)c2ccccc2)cc1 [JN043]	MED	HIGH	HIGH	LOW	MED	HIGH	HIGH	HIGH								
CN(C/C(=C\c1ccc(C(F)(F)F)cc1)C(=O)c1ccccc1)Cc1ccccc1 [JN044]	MED	HIGH	HIGH	LOW	MED	HIGH	MED	HIGH								
CN(C/C(=C\c1cccc(Cl)c1)C(=O)c1ccccc1)Cc1ccccc1 [JN048]	LOW	HIGH	HIGH	LOW	LOW	LOW	HIGH	HIGH								
CN(C/C(=C\c1ccc(Cl)cc1)C(=O)c1ccc(Cl)cc1)Cc1ccccc1 [JN050]	MED	HIGH	HIGH	LOW	MED	HIGH	HIGH	HIGH								
O=C(/C=C/c1ccc(F)cc1)C(=Cc1ccc(F)cc1)c1ccccc1 [JN051]	HIGH		HIGH			HIGH	HIGH	HIGH								
C=C(CN(C)Cc1ccccc1)C(=O)/C(=C\c1ccc(F)cc1)c1ccccc1.Cl [JN055]						HIGH	MED	MED								
C=C(CN(C)Cc1ccccc1)C(=O)/C(=C/c1ccc(Cl)c(Cl)c1)c1ccccc1.Cl [JN057]	MED		MED			HIGH	MED									
C=C(CN(C)Cc1ccccc1)C(=O)/C(=C/c1cccc(Cl)c1)c1ccccc1.Cl [JN060]	HIGH		HIGH			HIGH	HIGH	HIGH								
C=C(CN(C)Cc1ccccc1)C(=O)/C(=C/c1ccc(Cl)c(F)c1)c1ccccc1.Cl [JN082]	LOW		LOW				LOW	LOW								
C=C(CN(C)Cc1ccccc1)C(=O)/C(=C/c1ccc(Cl)cc1F)c1ccccc1.Cl [JN083]	MED		MED				HIGH	LOW								
C=C(CN(C)Cc1ccccc1)C(=O)/C(=C/c1ccc(Cl)cc1)c1ccc(F)cc1.Cl [JN090]									inhibit the growth; also recorded: demonstrated anti-tumor effects	limited or no outward signs of toxicity						
C=C(C)C(=O)NC(=O)/C(=C/c1ccc(Cl)cc1)c1ccccc1 [JN102, (E)-3-(4-Chlorophenyl)-N-methacryloyl-2-phenylacrylamide]											did not influence growth	did not influence growth	improved growth suppressive effects	suppressed growth	inhibited reporter activity	
C=C(C)C(=O)NC(=O)/C(=C/c1ccc(Cl)cc1)c1ccc(F)cc1 [JN103]									inhibit the growth; also recorded: demonstrated anti-tumor effects	limited or no outward signs of toxicity	did not influence growth	did not influence growth	improved growth suppressive effects	suppressed growth	inhibited reporter activity	
CNC(=O)c1ccc(N2C(=S)N(c3ccc(C#N)c(C(F)(F)F)c3)C(=O)C2(C)C)cc1F [MDV 3100, enzalutamide, reference compound]	LOW		HIGH	LOW	LOW	LOW		HIGH								HIGH
